The source of these data is patent US11459375B2, “Cyclic peptides for the treatment of Graves' disease” (advanceCOR GmbH, priority 2017, dated 2022).

Peptide text beside a SMILES is read from it.

Data set [1] deals with Ad-TSHR-immunized mice. Briefly: anti-TSHR antibody titers in serum of treated Ad-TSHR-immunized mice (3rd generation ELISA, inhibition of M22 binding to TSHR). The class given is in vivo, BALB/c mice. The following applies: 1 mg/kg IV at 4-weekly intervals, after start of therapy despite continuing immunisations. As to the method: The measurements were carried out in Ad-TSHR-immunized mice treated by either 4-weekly injections with vehicle (0.9% NaCl, “Graves' no therapy”, n=25 mice), or administrations of 1 mg/kg body weight of peptide of the invention 836 (12 mice), or of peptide 829 (13 mice), or of TSHR-Fc (18 mice), or of control peptide 835 (13 mice). In addition, age-matched immunologically naïve unimmunized mice (“healthy”, 19 animals) were investigated. Data are represented as mean±SEM. Significance over time was tested by analysis of variance (ANOVA) of groups at given time points, and controlled by ANOVA for repeated measurements within one group, followed by LSD post-hoc testing. *p<0.05, and **p<0.005, compared to the TSHR-immunized group treated with only NaCl (“Graves' no therapy”).
Animals were kept under standard housing conditions (23±2° C., 55±10% RH) in groups of ten animals in GR1800DD cages (Tecniplast®). […] All guidelines for care of animals were respected. Mice received 10^10 plaque-forming units (pfu) of adenovirus carrying the A-subunit of the TSHR gene. […]
Anti-TSHR autoantibody titers and potency of antibodies to stimulate TSHR-dependent cAMP levels in test cells were determined before start of immunisation (basal value), 56 days after first immunisation, 133 days after first immunisation, and 189 days after first immunisation, and at the end of experiment.
On the technique in general: In an ELISA, binding on a coated surface is turned into a signal by an enzyme label.

Data set [2] has as its system Ad-TSHR-immunized mice. Description: ventricular myocardial volumes from digitized cross-sectional LV areas. Conditions: 1 mg/kg IV 4-weekly, end of experiment. The class given is in vivo, BALB/c mice. As to the method: In FIG. 7 the effect of the peptide therapy on heart rates at various times during the experiment (A), and on heart weights (B) and cardiac ventricular volumes (C) at the end of the experiment were evaluated in all animals. The measurements were carried out in Ad-TSHR-immunized mice treated by either 4-weekly injections with vehicle (0.9% NaCl, “Graves' no therapy”, n=25 mice), or administrations of 1 mg/kg body weight of peptide of the invention 836 (12 mice), or of peptide 829 (13 mice), or TSHR-Fc (18 mice). In addition, age-matched immunologically naïve unimmunized mice (“healthy”, 19 animals) were investigated. Data are represented as mean±SEM. […]
After euthanasia, dissection of the thyroid glands was performed under a stereomicroscope, as described before (22). […] Thyroid volumes (mm^3) were calculated from the sum of the areas of each section over the whole cutting region. Myocardial volumes (mm^3) were calculated in a similar way as described for thyroid glands from the sum of the areas of each section over whole cutting region (5 to 6 slides, depending on respective size of the hearts). […]

Data set [3] is classed as physicochemical. From the text: Peptide 836 is a 24-meric cyclic peptide corresponding to the eighth TSHR LRD loop, and peptide 829 (also 24-meric) to the first loop of the TSHR LRD.

Regarding `CC[C@H](C)[C@@H]1NC(=O)[C@H](C(C)C)NC(=O)[C@H]([C@@H](C)O)NC(=O)[C@H](CC(C)C)NC(=O)[C@H](Cc2ccc(O)cc2)NC(=O)[C@H](CCCCN)NC(=O)[C@H](CC(N)=O)NC(=O)[C@H](CCCCN)NC(=O)[C@H](CC(N)=O)NC(=O)[C@H](CC(C)C)NC(=O)[C@H](Cc2ccc(O)cc2)NC(=O)[C@H](C(C)C)NC(=O)[C@H](C)NC(=O)[C@H](CC(=O)O)NC(=O)[C@H](CC(C)C)NC(=O)[C@H](CCCCN)NC(=O)[C@H]([C@@H](C)O)NC(=O)CNC(=O)[C@H](CC(N)=O)NC(=O)[C@H](Cc2ccccc2)NC(=O)[C@H](C)NC(=O)[C@H](Cc2ccc(O)cc2)NC(=O)CNC(=O)[C@H](CC(=O)O)NC1=O` [peptide 836] (cyclo(GYAFNGTKLDAVYLNKNKYLTVID)), the “time course of anti-TSHR antibody titers” value in the data set with Ad-TSHR-immunized mice [1] is recorded as “no trends for further anti-TSHR titer increases after start of therapy”. Moreover, the ventricular myocardial volumes entry with Ad-TSHR-immunized mice [2] is on record as “significantly reduced ventricular myocardial volumes”. The solubility in water entry in data set [3] is listed as “easily soluble in water”.
For SPPCECHQEEDFRVTCKDIQRIPS [peptide 829], in data set [3], the solubility in water entry is “easily soluble in water”.
Take “TSHR-Fc: fusion protein: first 289 amino acids of human TSH receptor (A-subunit), GGR linker and Fc portion of human IgG2”: in the data set on Ad-TSHR-immunized mice [1], the “time course of anti-TSHR antibody titers” value is “no trends for further anti-TSHR titer increases after start of therapy”. Besides, in the data set on Ad-TSHR-immunized mice [2], the ventricular myocardial volumes entry is “significantly reduced ventricular myocardial volumes”.
